Reference: patent publication US9957282B2, “Crystalline forms of quinolone analogs and their salts” (Senhwa Biosciences, Inc., priority 2015, dated 2018)

Key:
[1] = Aqueous solubility of acid salts of Compound I; type: physicochemical; details: water, 42 °C, thermodynamic from solid, approximately 50 mg salt in 0.25 mL water (x2, added portion wise), read-out: Aqueous Solubility (Calculated)
Procedure: The mixture was stirred at 42° C. for 3 days and each solution was analyzed by HPLC for concentration and purity.

[2] = Solubility of polymorph forms in organic solvents; type: physicochemical
Procedure: Solubility of polymorphs A, C, E, and G of Compound I (free base) were determined by suspending approximately 25 mg of each polymorph in organic solvents and the resulting mixtures were stirred at room temperature or elevated temperatures for 1 h. A sample was filtered and the concentration was determined by HPLC. The remaining suspension was evaporated and the solid was analyzed by XRPD to confirm that the polymorph form in the suspension was still the same polymorph form used for the experiment.

## Cc1cnc(CNC(=O)c2c(=O)c3ccc(N4CCCN(C)CC4)nc3n3c2sc2ccccc23)cn1
[1]
  solubility at 3 days: > 200 mg/mL

## Cc1cnc(CNC(=O)c2c(=O)c3ccc(N4CCCN(C)CC4)nc3n3c2sc2ccccc23)cn1 [Polymorph A]
[2]; compared with polymorphs C, E, G
  Relative stability of polymorph, inferred from solubility: most stable
[2]; methanol and THF (FIG. 20), room temperature or elevated temperatures, stirred 1 h
  Solubility of polymorph relative to polymorphs A, C, E, G: lowest solubility
